Bridge positions count the residues as written; N and C are the ends. Square brackets hold non-standard residues; d marks the D form. Peptide text beside a SMILES is read from it. Phg = N[C@H](C(=O)O)c1ccccc1; NMeV = CN[C@H](C(=O)O)C(C)C; Aib = CC(C)(N)C(=O)O; Sar = CNCC(=O)O
Molecular target: ACA-6501
Assay: Competitive binding peptide ACA ELISA, cardiolipin/β2-GPI-coated plates
Parameters: species or system human
Settings: Optimization of Peptide 3G3; inf = no 50% inhibition
Method: A variation of this assay uses microtitration plates coated with human β2-glycoprotein I/cardiolipin (β2-GPI/CL) instead of tetravalent peptide and tests the ability of monomeric peptides to block the binding of aPL antibody to the epitope(s) on β2-GPI/CL. In this assay, IgG-depleted human serum at an optimized concentration is used as a source of β2-GPI. The monomeric peptides at several concentrations are incubated with an optimized concentration of aPL antibody in a manner analogous to the assay which employs tetravalent peptide as a plate substrate. Following the incubation of aPL/peptide in (β2-GPI/CL) plates, antibody binding and the peptide concentration required for 50% inhibition is determined at half-maximal absorbance as in the tetravalent assay.
Peptide sequences for all five peptides immediately follow the table. All were tested using the competitive binding peptide ACA ELISA using CL/β2-GPI plates as described herein.
(B) Immulon I® 96-well, flat-bottom, polystyrene microtitration plates (Dynatech Laboratories, Inc., Chantilly, Va.) were coated with 30 μL/well of cardiolipin (CL, 50 μg; Sigma Chemical Co., St. Louis, Mo.) in ethanol. Two control wells received 30 μL ethanol only. After overnight evaporation at 4° C., each well was blocked with 200 μL of 5% (w/v) fish gelatin in PBS for 2 hours at RT.
During this incubation, variable amounts of each of six peptides were mixed with 22 μL ACA-6501 serum diluted with 3% fish gelatin in 1:1 TBS/PBS (final dilution of 1:400) in a final volume of 220 μL using Eppendorf microcentrifuge tubes. Specifically, in tube #1 were mixed 181.3 μL of 3% fish gelatin in TBS-PBS, 16.7 μL of peptide stock solution plus 22 μL of ACA-6501 serum diluted 40 times in 3% fish gelatin/TBS-PBS. Stock solutions ranged from 450-800 μg/mL for peptides #951 (diserine non-cyclized negative control), #952 (a lot of LJP 690), and thioethers CCTE-3G3, CHTE-3G3, HCTE-3G3 and HHTE-3G3. To tube #2 the following were added: 148 μL fish gelatin/TBS-PBS, […] of peptide stock solution, plus 22 μL of 40 times diluted ACA-6501 serum. Tube #3 contained 48 μL fish gelatin/TBS-PBS, […] of peptide stock solution, plus 22 μL of 40 times diluted ACA-6501 serum. The control tube #4 received 396 μL fish gelatin/TBS-PBS and 44 μL of 40 times diluted ACA-6501 serum (no peptide). Each of the tubes incubated for approximately 1 hour at RT.
The CL/β2-GPI microtitration plate was washed 5 times with TBS and 100 μL aliquots in duplicate from Eppendorf tubes #1, 2, 3, and 4 containing the antibody-peptide (or no peptide mixtures) were added to the wells. A volume of 100 μL from tube #4 was added to the duplicate control wells containing no cardiolipin. The microtitration plate was incubated for 1 hour at RT with agitation at 40 rpm in an orbital shaker (American Scientific, Rotator V), washed 5 times with TBS and then 100 μL of 1:1000 goat anti-human IgG alkaline phosphatase conjugate (Zymed, Cat No. 62-8422) in 0.5% (w/v) BSA-TBS was added. Following incubation for 1 hour at RT, the microtitration plate was again washed 5 times with TBS and the colorimetric enzyme detection developed by adding 100 μL of PMPP solution (7.8 g phenolphthalein monophosphate plus 69.5 g of 2-amino-2-methyl-1-propanol in 100 mL water stock solution diluted 1:26 with water). After 21 minutes, the reaction was stopped by adding 50 μL of 0.2 M Na2HPO4 (Mallinckrodt) to each well. Absorbance at 550 nm was read in a microplate reader (Bio-Tek Instruments, Model EL 311). The amount of peptide that inhibited ACA-6501 binding by 50%, the IC50, was calculated from the graph at the intersection of half-maximal absorbance with amount of peptide added.

| Compound | with ACA 6501 150 ug/mL |
| --- | --- |
| CC(C)C[C@@H]1NC(=O)[C@@H](NC(=O)[C@@H]2CCCN2C(=O)CNC(=O)[C@H](C)N)CSSC[C@@H](C(=O)NCC(=O)O)NC(=O)[C@H](CC(C)C)NC(=O)[C@H](CCCCN)NC(=O)CNC(=O)[C@H](CC(C)C)NC(=O)[C@H](C(C)C)NC(=O)CNC1=O [A G P C L G V L G K L C G] (H-AGPCLGVLGKLCG-OH; disulfide 4-12) | 450 µg/mL |
| CC(C)C[C@@H]1NC(=O)[C@H](CCCCN)NC(=O)[C@@H](C)NC(=O)[C@H](CC(C)C)NC(=O)[C@H](C(C)C)NC(=O)CNC(=O)[C@H](CC(C)C)NC(=O)[C@@H](N)CSSC[C@@H](C(=O)O)NC1=O [C L G V L dA K L C] (H-CLGVL[dA]KLC-OH; disulfide 1-9) | 140 µg/mL |
| CC(C)C[C@@H]1NC(=O)[C@H](CCCCN)NC(=O)CNC(=O)[C@H](CC(C)C)NC(=O)C(C)(C)NC(=O)CNC(=O)[C@H](CC(C)C)NC(=O)[C@@H](N)CSSC[C@@H](C(=O)O)NC1=O [C L G aiB L G K L C] (H-CLG[Aib]LGKLC-OH; disulfide 1-9) | 110 µg/mL |
| CC(C)C[C@@H]1NC(=O)[C@H](c2ccccc2)NC(=O)CNC(=O)[C@H](CC(C)C)NC(=O)[C@H](C(C)C)NC(=O)CNC(=O)[C@H](CC(C)C)NC(=O)[C@@H](N)CSSC[C@@H](C(=O)O)NC1=O [C L G V L Gp G L C] (H-CLGVLG[Phg]LC-OH; disulfide 1-9) | 230 µg/mL |
| CC(C)C[C@@H]1NC(=O)[C@H](C(C)C)NC(=O)CNC(=O)[C@H](CC(C)C)NC(=O)[C@@H](N)CSSC[C@@H](C(=O)O)NC(=O)[C@@H](CC(C)C)NC(=O)[C@@H](CC(C)C)NC(=O)CNC1=O [C L G V L G dL dL C] (H-CLGVLG[dL][dL]C-OH; disulfide 1-9) | 140 µg/mL |
| CC(C)C[C@@H]1NC(=O)[C@H](CCCCN)NC(=O)CNC(=O)[C@H](CC(C)C)NC(=O)[C@H](C(C)C)N(C)C(=O)CNC(=O)[C@H](CC(C)C)NC(=O)[C@@H](N)CSSC[C@@H](C(=O)O)NC1=O [C L G nV L G K L C] (H-CLG[NMeV]LGKLC-OH; disulfide 1-9) | 220 µg/mL |
| CC(C)C[C@@H]1NC(=O)[C@H](CCCCN)NC(=O)CNC(=O)[C@H](CC(C)C)NC(=O)[C@H](C(C)C)NC(=O)[C@@H]2CCCN2C(=O)[C@H](CC(C)C)NC(=O)[C@@H](N)CSSC[C@@H](C(=O)O)NC1=O [C L P V L G K L C] (H-CLPVLGKLC-OH; disulfide 1-9) | 340 µg/mL |
| CC(C)C[C@@H]1NC(=O)[C@H](CCCCN)NC(=O)[C@H](c2ccccc2)NC(=O)[C@H](CC(C)C)NC(=O)[C@H](C(C)C)NC(=O)CNC(=O)[C@H](CC(C)C)NC(=O)[C@@H](N)CSSC[C@@H](C(=O)O)NC1=O [C L G V Lp G K L C] (H-CLGVL[Phg]KLC-OH; disulfide 1-9) | 30 µg/mL |
| CC(C)C[C@@H]1NC(=O)[C@H](C(C)C)NC(=O)CNC(=O)[C@H](CC(C)C)NC(=O)[C@@H](N)CSSC[C@@H](C(=O)O)NC(=O)[C@H](CC(C)C)NC(=O)[C@@H](CCCCN)NC(=O)CNC1=O [C L G V L G dK L C] (H-CLGVLG[dK]LC-OH; disulfide 1-9) | 170 µg/mL |
| CLGVLGGLC [C L G V L G G L C] | inf |
| CC(C)C[C@@H]1NC(=O)[C@H](CCCCN)NC(=O)CNC(=O)[C@H](CC(C)C)NC(=O)[C@H](C(C)C)NC(=O)CN(C)C(=O)[C@H](CC(C)C)NC(=O)[C@@H](N)CSSC[C@@H](C(=O)O)NC1=O [C L nG V L G K L C] (H-CL[Sar]VLGKLC-OH; disulfide 1-9) | 70 µg/mL |
| CC(C)C[C@@H]1NC(=O)[C@H](CCCCN)NC(=O)CNC(=O)[C@H](CC(C)C)NC(=O)[C@H](C(C)C)NC(=O)CNC(=O)CNC(=O)[C@@H](N)CSSC[C@@H](C(=O)O)NC1=O [C G G V L G K L C] (H-CGGVLGKLC-OH; disulfide 1-9) | 310 µg/mL |

From US20040009904A1, “APL immunoreactive peptides, conjugates thereof and methods of treatment for aPL antibody-mediated pathologies” (priority 1995, published 2004)
